Test results taken from PubChem BioAssay AID248 (DTP/NCI, 2004).
“And” between values parts separate entries of the source, which are not always exact repeats. Equal entries are not always repeated. Inconclusive results and toxic doses are left out.

Test system: L1210 leukemia ip in BDF1 mice, survival T/C
Experiment: NCI In Vivo Anticancer Drug Screen. Data for tumor model L1210 Leukemia (intraperitoneal) in B6D2F1 (BDF1) mice
Settings: endpoint: mean survival time, higher = longer survival
How it was run: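 Antitumor effect is assessed in tumor-bearing animals. Survival in the compound arm is compared with a vehicle-dosed control arm and expressed as their quotient.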

[1] = dose: 100.0 mg/kg/injection, schedule: Q01DX009 (ip), vehicle: saline with Tween-80
[2] = dose: 200.0 mg/kg/injection, schedule: Q01DX009 (ip), vehicle: saline with Tween-80
[3] = dose: 400.0 mg/kg/injection, schedule: Q01DX009 (ip), vehicle: saline with Tween-80
[4] = dose: 25.0 mg/kg/injection, schedule: Q04DX003 (ip), vehicle: saline with Tween-80
[5] = dose: 50.0 mg/kg/injection, schedule: Q04DX003 (ip), vehicle: saline with Tween-80
[6] = dose: 100.0 mg/kg/injection, schedule: Q01DX001 (ip), vehicle: saline
[7] = dose: 200.0 mg/kg/injection, schedule: Q01DX001 (ip), vehicle: saline
[8] = dose: 400.0 mg/kg/injection, schedule: Q01DX001 (ip), vehicle: saline
[9] = dose: 100.0 mg/kg/injection, schedule: Q04DX003 (ip), vehicle: Klucel (hydroxypropylcellulose) (HPC)
[10] = dose: 200.0 mg/kg/injection, schedule: Q04DX003 (ip), vehicle: Klucel (hydroxypropylcellulose) (HPC)
[11] = dose: 400.0 mg/kg/injection, schedule: Q04DX003 (ip), vehicle: Klucel (hydroxypropylcellulose) (HPC)
[12] = dose: 100.0 mg/kg/injection, schedule: Q01DX009 (ip), vehicle: Klucel (hydroxypropylcellulose) (HPC)
[13] = dose: 200.0 mg/kg/injection, schedule: Q01DX009 (ip), vehicle: Klucel (hydroxypropylcellulose) (HPC)
[14] = dose: 400.0 mg/kg/injection, schedule: Q01DX009 (ip), vehicle: Klucel (hydroxypropylcellulose) (HPC)
[15] = dose: 100.0 mg/kg/injection, schedule: Q04DX002 (ip), vehicle: Klucel (hydroxypropylcellulose) (HPC)
[16] = dose: 200.0 mg/kg/injection, schedule: Q04DX002 (ip), vehicle: Klucel (hydroxypropylcellulose) (HPC)
[17] = dose: 400.0 mg/kg/injection, schedule: Q04DX002 (ip), vehicle: Klucel (hydroxypropylcellulose) (HPC)
[18] = dose: 50.0 mg/kg/injection, schedule: Q01DX009 (ip), vehicle: saline with Tween-80
[19] = dose: 100.0 mg/kg/injection, schedule: Q01DX005 (ip), vehicle: saline
[20] = dose: 200.0 mg/kg/injection, schedule: Q01DX005 (ip), vehicle: saline

With `O/N=C(\Cl)c1ccc(/C(Cl)=N\O)cc1` the T/C (dose: 5.0 mg/kg/injection, schedule: Q01DX001 (ip), vehicle: saline) was 111 % of control, the T/C (dose: 10.0 mg/kg/injection, schedule: Q01DX001 (ip), vehicle: saline) was 105 % of control and the T/C (dose: 20.0 mg/kg/injection, schedule: Q01DX001 (ip), vehicle: saline) was 100 % of control.
`O=C(/C=C/c1ccc(Cl)c(Cl)c1)C1CCC2CCCCC2C1` (stereo unspecified) was tested, and the T/C [1] was 90 % of control, the T/C (dose: 100.0 mg/kg/injection, schedule: Q04DX002 (ip), vehicle: saline with Tween-80) was 105 % of control and the T/C [2] was 93 % of control. For the same molecule, the T/C (dose: 200.0 mg/kg/injection, schedule: Q04DX002 (ip), vehicle: saline with Tween-80) was 101 % of control, the T/C [3] was 90 % of control and the T/C (dose: 400.0 mg/kg/injection, schedule: Q04DX002 (ip), vehicle: saline with Tween-80) was 90 % of control.
For `CN(C)C(=S)SCC(=O)[O][Sn]([c]1ccccc1)([c]1ccccc1)[c]1ccccc1`, the T/C (dose: 6.25 mg/kg/injection, schedule: Q04DX002 (ip), vehicle: saline with Tween-80) was 96 % of control, the T/C (dose: 12.5 mg/kg/injection, schedule: Q04DX002 (ip), vehicle: saline with Tween-80) was 93 % of control and the T/C (dose: 25.0 mg/kg/injection, schedule: Q04DX002 (ip), vehicle: saline with Tween-80) was 104 % of control.
For `O=C(Nc1cccc([N+](=O)[O-])c1)c1ccc(Cl)c(Cl)c1`, the T/C [4] was 115 % of control, the T/C [5] was 96 % of control and the T/C (dose: 100.0 mg/kg/injection, schedule: Q04DX003 (ip), vehicle: saline with Tween-80) was 99 % of control. The T/C (dose: 200.0 mg/kg/injection, schedule: Q04DX003 (ip), vehicle: saline with Tween-80) was 86 % of control and the T/C (dose: 300.0 mg/kg/injection, schedule: Q04DX003 (ip), vehicle: saline with Tween-80) was 86 % of control.
For `O=C(Nc1ccc([N+](=O)[O-])cc1Br)c1ccc(C(=O)Nc2ccc([N+](=O)[O-])cc2Br)cc1`, the T/C [6] was 97 % of control, the T/C [7] was 105 % of control and the T/C [8] was 103 % of control.
For `[CH3][Sb]([CH3])([CH3])([O]C(=O)CBr)[O]C(=O)CBr`, the T/C (dose: 12.5 mg/kg/injection, schedule: Q04DX003 (ip), vehicle: saline with Tween-80) was 102 % of control, the T/C [4] was 87 % of control and the T/C [5] was 91 % of control.
With `CN(C)c1ccc(/C=C(/NC(=O)c2ccccc2)C(N)=O)cc1` the T/C [9] was 94 % of control, the T/C [10] was 96 % of control and the T/C [11] was 94 % of control.
For `N/C(=C\C(=O)c1ccccc1)C(=O)c1ccccc1`, the T/C [9] was 103 % of control and the T/C [10] was 108 % of control.
With `COc1cc2c(cc1OC)-c1c(OC)c(OC)cc3c1[C@H](C2)N(C)CC3` the T/C (dose: 100.0 mg/kg/injection, schedule: Q01DX001 (ip), vehicle: carboxymethylcellulose (CMC)) was 96 % of control, the T/C (dose: 200.0 mg/kg/injection, schedule: Q01DX001 (ip), vehicle: carboxymethylcellulose (CMC)) was 100 % of control and the T/C (dose: 400.0 mg/kg/injection, schedule: Q01DX001 (ip), vehicle: carboxymethylcellulose (CMC)) was 100 % of control.
With `O=C(NCCCl)NC1c2ccccc2-c2ccccc21` the T/C [12] was 105 % of control, the T/C [9] was 96 % of control and 89 % of control and the T/C [13] was 92 % of control. The T/C [10] was 102 % of control, the T/C [14] was 106 % of control and the T/C [11] was 98 % of control and 86 % of control.
For `CC(=O)c1ccc(Cc2ccc(C(C)=O)cc2)cc1`, the T/C [12] was 98 % of control, the T/C [13] was 98 % of control and the T/C [14] was 106 % of control.
In the case of `CCOC(=O)NCS(=O)(=O)c1ccccc1-c1ccccc1`, the T/C [9] is reported as 93 % of control and the T/C [10] is reported as 104 % of control.
With `CC(=O)NC1CCC(O)CC1` (stereo unspecified) the T/C [6] was 104 % of control, the T/C [7] was 94 % of control and the T/C [8] was 107 % of control.
In the case of `COc1ccc(Cl)cc1NS(=O)(=O)c1ccc(Cl)c([N+](=O)[O-])c1`, the T/C [12] is reported as 98 % of control, the T/C [13] is reported as 109 % of control and the T/C [14] is reported as 98 % of control.
For `CC1(CC(=O)O)CCCCC1CC(=O)O` (stereo unspecified), the T/C [15] was 110 % of control, the T/C [16] was 103 % of control and the T/C [17] was 97 % of control.
In the case of `Cn1cnc([N+](=O)[O-])c1[Se]c1nc(N)nc2nc[nH]c12`, the T/C (dose: 25.0 mg/kg/injection, schedule: Q01DX005 (ip), vehicle: other) is reported as 159 % of control and the T/C (dose: 50.0 mg/kg/injection, schedule: Q01DX005 (ip), vehicle: other) is reported as 92 % of control.
For `C=C(CCCC)c1ccccc1`, the T/C [18] was 102 % of control, the T/C [1] was 91 % of control and the T/C [2] was 94 % of control.
For `CCSC1C(O)C(CO)OC1n1ccc(=O)[nH]c1=O` (stereo unspecified), the T/C [19] was 92 % of control and the T/C [20] was 101 % of control.
With `Clc1cc(Cl)c(SSc2cc(Cl)c(Cl)cc2Cl)cc1Cl` the T/C [18] was 102 % of control, the T/C [1] was 98 % of control and the T/C [2] was 98 % of control.
`Nc1nc(N)nc(-c2ccccc2N=NNc2ccc([N+](=O)[O-])cc2)n1` was tested, and the T/C [15] was 97 % of control, the T/C [16] was 93 % of control and the T/C [17] was 89 % of control.
In the case of `N#Cc1cn(C2OC(CO)C(O)C2O)c2ncn(O)c(=N)c12` (stereo unspecified), the T/C (dose: 0.19 mg/kg/injection, schedule: Q01DX005 (ip), vehicle: saline) is reported as 112 % of control, the T/C (dose: 0.19 mg/kg/injection, schedule: Q01DX009 (ip), vehicle: saline) is reported as 107 % of control and the T/C (dose: 0.39 mg/kg/injection, schedule: Q01DX005 (ip), vehicle: saline) is reported as 96 % of control. For the same molecule, the T/C (dose: 0.39 mg/kg/injection, schedule: Q01DX009 (ip), vehicle: saline) was 97 % of control, the T/C (dose: 0.78 mg/kg/injection, schedule: Q01DX005 (ip), vehicle: saline) was 100 % of control and the T/C (dose: 0.78 mg/kg/injection, schedule: Q01DX009 (ip), vehicle: saline) was 100 % of control. The T/C (dose: 1.56 mg/kg/injection, schedule: Q01DX005 (ip), vehicle: saline) was 94 % of control.
With `CC1(C)OCC(C2OC(C)(C)OC2C(O)c2cn(-c3ccccc3)nn2)O1` (stereo unspecified) the T/C [19] was 102 % of control and the T/C [20] was 104 % of control.
`CC(=O)Nc1ccc(NC(=O)Nc2cccc(F)c2)cc1` was tested, and the T/C [1] was 92 % of control, the T/C [2] was 89 % of control and the T/C [3] was 92 % of control.
For `CCCCCCCCCCCCCCCCC(/C=N/N=C(N)N)=N\N=C(N)N`, the T/C (dose: 15.0 mg/kg/injection, schedule: Q01DX Z (ip), vehicle: methylcellulose (MC)) was 95 % of control, the T/C (dose: 30.0 mg/kg/injection, schedule: Q01DX Z (ip), vehicle: methylcellulose (MC)) was 98 % of control and the T/C (dose: 60.0 mg/kg/injection, schedule: Q01DX Z (ip), vehicle: methylcellulose (MC)) was 110 % of control. For the same molecule, the T/C (dose: 120.0 mg/kg/injection, schedule: Q01DX Z (ip), vehicle: methylcellulose (MC)) was 103 % of control, the T/C (dose: 240.0 mg/kg/injection, schedule: Q01DX Z (ip), vehicle: methylcellulose (MC)) was 101 % of control and the T/C (dose: 360.0 mg/kg/injection, schedule: Q01DX Z (ip), vehicle: methylcellulose (MC)) was 97 % of control. For the same molecule, the T/C (dose: 480.0 mg/kg/injection, schedule: Q01DX Z (ip), vehicle: methylcellulose (MC)) was 98 % of control, the T/C (dose: 720.0 mg/kg/injection, schedule: Q01DX Z (oral), vehicle: methylcellulose (MC)) was 97 % of control and the T/C (dose: 960.0 mg/kg/injection, schedule: Q01DX Z (oral), vehicle: methylcellulose (MC)) was 93 % of control.
For `CCOC(=O)C(C)(Cc1c(C)cc(C)c(CC(C)(C(=O)OCC)C(=O)OCC)c1C)C(=O)OCC`, the T/C (dose: 25.0 mg/kg/injection, schedule: Q01DX009 (ip), vehicle: Klucel (hydroxypropylcellulose) (HPC)) was 95 % of control, the T/C (dose: 25.0 mg/kg/injection, schedule: Q04DX003 (ip), vehicle: Klucel (hydroxypropylcellulose) (HPC)) was 98 % of control and the T/C (dose: 50.0 mg/kg/injection, schedule: Q01DX009 (ip), vehicle: Klucel (hydroxypropylcellulose) (HPC)) was 91 % of control. For the same molecule, the T/C (dose: 50.0 mg/kg/injection, schedule: Q04DX003 (ip), vehicle: Klucel (hydroxypropylcellulose) (HPC)) was 96 % of control, the T/C [12] was 96 % of control and the T/C [9] was 100 % of control.
